The supplement of paper PMC6045584
± gives the standard deviation of the averaged measurements.

Columns and labels:
SNX-5422 = compound: CC1(C)CC(=O)c2c(C(F)(F)F)nn(-c3ccc(C(N)=O)c(N[C@H]4CC[C@H](OC(=O)CN)CC4)c3)c2C1 [SNX-5422]; assay: surviving fraction relative to DMSO-only wells; higher = less growth inhibition; settings: exposure time: 5 days
Method in brief: (§1)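 Inhibitors were tested at 0.5, 1, 5, 10, 50, 100, 500 and 1000 nM, applied continuously for five days beginning 24 hours after log-phase tumour cells were seeded at 250–500 per well in 384-well plates. CellTiter-Glo luminescence served as the viability measure, expressed as surviving fraction against the median of DMSO-only wells. Each line, screened three times, was kept only with replicate Pearson r >0.7 and median Z' >0.3.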

[1] = compound: Cn1cc(C2=Nc3cc(NC(=O)C(N)C4CCCCC4)cc4c3C2=CNNC4=O)cn1; assay: as above; settings: exposure time: 5 days
Method in brief: as §1

Test System: VP229 BREAST
- surviving fraction (SNX-5422; 0.5 nM): 1.286 ± 0.012
- surviving fraction (SNX-5422; 1 nM): 1.15 ± 0.17
- surviving fraction (SNX-5422; 5 nM): 1.12 ± 0.08
- surviving fraction (SNX-5422; 10 nM): 1.03 ± 0.16
- surviving fraction (SNX-5422; 50 nM): 0.612 ± 0.034
- surviving fraction (SNX-5422; 100 nM): 0.628 ± 0.1
- surviving fraction (SNX-5422; 500 nM): 0.0873 ± 0.019
- surviving fraction (SNX-5422; 1000 nM): 0.088 ± 0.011
- surviving fraction ([1]; 0.5 nM): 1.04 ± 0.11
- surviving fraction ([1]; 1 nM): 1.04 ± 0.035
- surviving fraction ([1]; 5 nM): 1.02 ± 0.059
- surviving fraction ([1]; 10 nM): 1.11 ± 0.17
- surviving fraction ([1]; 50 nM): 1.06 ± 0.15
- surviving fraction ([1]; 100 nM): 1.01 ± 0.064
- surviving fraction ([1]; 500 nM): 1.13 ± 0.13
- surviving fraction ([1]; 1000 nM): 1.06 ± 0.15

Test System: HOSMNG BONE
- surviving fraction (SNX-5422; 0.5 nM): 1.02 ± 0.017
- surviving fraction (SNX-5422; 1 nM): 1 ± 0.036
- surviving fraction (SNX-5422; 5 nM): 1.01 ± 0.04
- surviving fraction (SNX-5422; 10 nM): 0.973 ± 0.018
- surviving fraction (SNX-5422; 50 nM): 0.964 ± 0.084
- surviving fraction (SNX-5422; 100 nM): 0.299 ± 0.061
- surviving fraction (SNX-5422; 500 nM): 0.12 ± 0.012
- surviving fraction (SNX-5422; 1000 nM): 0.108 ± 0.0047
- surviving fraction ([1]; 0.5 nM): 0.954 ± 0.099
- surviving fraction ([1]; 1 nM): 0.99 ± 0.083
- surviving fraction ([1]; 5 nM): 0.954 ± 0.052
- surviving fraction ([1]; 10 nM): 0.943 ± 0.016
- surviving fraction ([1]; 50 nM): 0.992 ± 0.025
- surviving fraction ([1]; 100 nM): 0.975 ± 0.076
- surviving fraction ([1]; 500 nM): 0.737 ± 0.017
- surviving fraction ([1]; 1000 nM): 0.15 ± 0.031

Test System: MDAMB453 BREAST
- surviving fraction (SNX-5422; 0.5 nM): 1.02 ± 0.034
- surviving fraction (SNX-5422; 1 nM): 1.08 ± 0.036
- surviving fraction (SNX-5422; 5 nM): 1.08 ± 0.028
- surviving fraction (SNX-5422; 10 nM): 1.08 ± 0.037
- surviving fraction (SNX-5422; 50 nM): 0.458 ± 0.055
- surviving fraction (SNX-5422; 100 nM): 0.254 ± 0.016
- surviving fraction (SNX-5422; 500 nM): 0.0493 ± 0.013
- surviving fraction (SNX-5422; 1000 nM): 0.0633 ± 0.017
- surviving fraction ([1]; 0.5 nM): 0.971 ± 0.011
- surviving fraction ([1]; 1 nM): 1.01 ± 0.034
- surviving fraction ([1]; 5 nM): 0.999 ± 0.026
- surviving fraction ([1]; 10 nM): 1.01 ± 0.04
- surviving fraction ([1]; 50 nM): 0.784 ± 0.044
- surviving fraction ([1]; 100 nM): 0.293 ± 0.013
- surviving fraction ([1]; 500 nM): 0.179 ± 0.019
- surviving fraction ([1]; 1000 nM): 0.206 ± 0.011

Test System: HCC70 BREAST
- surviving fraction (SNX-5422; 0.5 nM): 1.07 ± 0.05
- surviving fraction (SNX-5422; 1 nM): 1.142 ± 0.0055
- surviving fraction (SNX-5422; 5 nM): 1.19 ± 0.043
- surviving fraction (SNX-5422; 10 nM): 1.17 ± 0.048
- surviving fraction (SNX-5422; 50 nM): 0.668 ± 0.11
- surviving fraction (SNX-5422; 100 nM): 0.133 ± 0.023
- surviving fraction (SNX-5422; 500 nM): 0.127 ± 0.021
- surviving fraction (SNX-5422; 1000 nM): 0.113 ± 0.016
- surviving fraction ([1]; 0.5 nM): 1.04 ± 0.035
- surviving fraction ([1]; 1 nM): 1.19 ± 0.054
- surviving fraction ([1]; 5 nM): 1.13 ± 0.046
- surviving fraction ([1]; 10 nM): 1.09 ± 0.063
- surviving fraction ([1]; 50 nM): 0.758 ± 0.028
- surviving fraction ([1]; 100 nM): 0.313 ± 0.076
- surviving fraction ([1]; 500 nM): 0.0723 ± 0.014
- surviving fraction ([1]; 1000 nM): 0.042 ± 0.0052

Test System: HT1080 SOFT TISSUE
- surviving fraction (SNX-5422; 0.5 nM): 1.02 ± 0.016
- surviving fraction (SNX-5422; 1 nM): 1.03 ± 0.0021
- surviving fraction (SNX-5422; 5 nM): 1.062 ± 0.0015
- surviving fraction (SNX-5422; 10 nM): 1.155 ± 0.01
- surviving fraction (SNX-5422; 50 nM): 0.414 ± 0.034
- surviving fraction (SNX-5422; 100 nM): 0.238 ± 0.011
- surviving fraction (SNX-5422; 500 nM): 0.121 ± 0.007
- surviving fraction (SNX-5422; 1000 nM): 0.12 ± 0.01
- surviving fraction ([1]; 0.5 nM): 0.977 ± 0.013
- surviving fraction ([1]; 1 nM): 1.01 ± 0.03
- surviving fraction ([1]; 5 nM): 0.987 ± 0.028
- surviving fraction ([1]; 10 nM): 1.03 ± 0.025
- surviving fraction ([1]; 50 nM): 0.879 ± 0.041
- surviving fraction ([1]; 100 nM): 0.812 ± 0.013
- surviving fraction ([1]; 500 nM): 0.153 ± 0.0023
- surviving fraction ([1]; 1000 nM): 0.122 ± 0.016

Test System: SJSA1 BONE
- surviving fraction (SNX-5422; 0.5 nM): 1.06 ± 0.041
- surviving fraction (SNX-5422; 1 nM): 1.02 ± 0.051
- surviving fraction (SNX-5422; 5 nM): 1.12 ± 0.088
- surviving fraction (SNX-5422; 10 nM): 1.14 ± 0.034
- surviving fraction (SNX-5422; 50 nM): 0.484 ± 0.03
- surviving fraction (SNX-5422; 100 nM): 0.177 ± 0.0095
- surviving fraction (SNX-5422; 500 nM): 0.0583 ± 0.0035
- surviving fraction (SNX-5422; 1000 nM): 0.0523 ± 0.0015
- surviving fraction ([1]; 0.5 nM): 1.023 ± 0.0096
- surviving fraction ([1]; 1 nM): 0.984 ± 0.02
- surviving fraction ([1]; 5 nM): 1.01 ± 0.061
- surviving fraction ([1]; 10 nM): 1.06 ± 0.036
- surviving fraction ([1]; 50 nM): 1.03 ± 0.021
- surviving fraction ([1]; 100 nM): 1.006 ± 0.0057
- surviving fraction ([1]; 500 nM): 0.526 ± 0.044
- surviving fraction ([1]; 1000 nM): 0.337 ± 0.018

Test System: HCC1806 BREAST
- surviving fraction (SNX-5422; 0.5 nM): 1.15 ± 0.15
- surviving fraction (SNX-5422; 1 nM): 1.04 ± 0.064
- surviving fraction (SNX-5422; 5 nM): 1.12 ± 0.012
- surviving fraction (SNX-5422; 10 nM): 1.07 ± 0.07
- surviving fraction (SNX-5422; 50 nM): 0.05 ± 0.0085
- surviving fraction (SNX-5422; 100 nM): 0.03 ± 0.001
- surviving fraction (SNX-5422; 500 nM): 0.029
- surviving fraction (SNX-5422; 1000 nM): 0.035 ± 0.001
- surviving fraction ([1]; 0.5 nM): 1.08 ± 0.062
- surviving fraction ([1]; 1 nM): 1.16 ± 0.14
- surviving fraction ([1]; 5 nM): 1.09 ± 0.071
- surviving fraction ([1]; 10 nM): 1.05 ± 0.092
- surviving fraction ([1]; 50 nM): 0.528 ± 0.15
- surviving fraction ([1]; 100 nM): 0.145 ± 0.041
- surviving fraction ([1]; 500 nM): 0.0373 ± 0.0042
- surviving fraction ([1]; 1000 nM): 0.0433 ± 0.0025

Test System: HS578T BREAST
- surviving fraction (SNX-5422; 0.5 nM): 1.07 ± 0.13
- surviving fraction (SNX-5422; 1 nM): 0.93 ± 0.099
- surviving fraction (SNX-5422; 5 nM): 0.871 ± 0.056
- surviving fraction (SNX-5422; 10 nM): 0.992 ± 0.22
- surviving fraction (SNX-5422; 50 nM): 0.387 ± 0.044
- surviving fraction (SNX-5422; 100 nM): 0.466 ± 0.021
- surviving fraction (SNX-5422; 500 nM): 0.298 ± 0.037
- surviving fraction (SNX-5422; 1000 nM): 0.245 ± 0.029
- surviving fraction ([1]; 0.5 nM): 0.986 ± 0.027
- surviving fraction ([1]; 1 nM): 1.06 ± 0.057
- surviving fraction ([1]; 5 nM): 0.946 ± 0.14
- surviving fraction ([1]; 10 nM): 0.927 ± 0.037
- surviving fraction ([1]; 50 nM): 0.788 ± 0.051
- surviving fraction ([1]; 100 nM): 0.485 ± 0.049
- surviving fraction ([1]; 500 nM): 0.162 ± 0.0082
- surviving fraction ([1]; 1000 nM): 0.174 ± 0.021

Test System: T47D BREAST
- surviving fraction (SNX-5422; 0.5 nM): 1.08 ± 0.018
- surviving fraction (SNX-5422; 1 nM): 1.06 ± 0.018
- surviving fraction (SNX-5422; 5 nM): 1.08 ± 0.035
- surviving fraction (SNX-5422; 10 nM): 1.06 ± 0.019
- surviving fraction (SNX-5422; 50 nM): 0.492 ± 0.033
- surviving fraction (SNX-5422; 100 nM): 0.512 ± 0.016
- surviving fraction (SNX-5422; 500 nM): 0.31 ± 0.0074
- surviving fraction (SNX-5422; 1000 nM): 0.288 ± 0.0079
- surviving fraction ([1]; 0.5 nM): 0.9916 ± 0.0057
- surviving fraction ([1]; 1 nM): 1.02 ± 0.032
- surviving fraction ([1]; 5 nM): 1.03 ± 0.041
- surviving fraction ([1]; 10 nM): 1.07 ± 0.022
- surviving fraction ([1]; 50 nM): 1.12 ± 0.044
- surviving fraction ([1]; 100 nM): 1.14 ± 0.059
- surviving fraction ([1]; 500 nM): 0.896 ± 0.023
- surviving fraction ([1]; 1000 nM): 0.661 ± 0.021

Test System: ZR751 BREAST
- surviving fraction (SNX-5422; 0.5 nM): 1.04 ± 0.12
- surviving fraction (SNX-5422; 1 nM): 1.45 ± 0.57
- surviving fraction (SNX-5422; 5 nM): 1.08 ± 0.11
- surviving fraction (SNX-5422; 10 nM): 1.34 ± 0.18
- surviving fraction (SNX-5422; 50 nM): 0.652 ± 0.071
- surviving fraction (SNX-5422; 100 nM): 0.513 ± 0.036
- surviving fraction (SNX-5422; 500 nM): 0.218 ± 0.024
- surviving fraction (SNX-5422; 1000 nM): 0.217 ± 0.017
- surviving fraction ([1]; 0.5 nM): 1.04 ± 0.079
- surviving fraction ([1]; 1 nM): 1.03 ± 0.19
- surviving fraction ([1]; 5 nM): 0.941 ± 0.13
- surviving fraction ([1]; 10 nM): 0.908 ± 0.11
- surviving fraction ([1]; 50 nM): 0.787 ± 0.032
- surviving fraction ([1]; 100 nM): 0.69 ± 0.053
- surviving fraction ([1]; 500 nM): 0.625 ± 0.044
- surviving fraction ([1]; 1000 nM): 0.555 ± 0.018
